Legend:
[1] = target: T1, hr Al2A ag (Homo sapiens, UniProt P08913); test: receptor profile (Table S4); type: biochemical
T1 sequence (P08913 1-465): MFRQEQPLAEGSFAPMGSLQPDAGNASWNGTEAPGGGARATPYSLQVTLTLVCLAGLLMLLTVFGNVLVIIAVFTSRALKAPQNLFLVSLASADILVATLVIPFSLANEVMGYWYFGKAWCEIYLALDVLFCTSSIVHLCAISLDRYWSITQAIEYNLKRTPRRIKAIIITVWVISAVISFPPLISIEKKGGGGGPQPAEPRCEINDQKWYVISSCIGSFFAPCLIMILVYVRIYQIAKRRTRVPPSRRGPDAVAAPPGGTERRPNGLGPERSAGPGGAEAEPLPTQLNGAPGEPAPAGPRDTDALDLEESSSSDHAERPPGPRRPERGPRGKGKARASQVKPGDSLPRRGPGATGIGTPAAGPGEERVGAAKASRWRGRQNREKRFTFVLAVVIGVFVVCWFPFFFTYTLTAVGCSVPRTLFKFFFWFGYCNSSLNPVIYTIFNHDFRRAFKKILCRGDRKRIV

[2] = target: hr GHS (Homo sapiens, UniProt Q92847); test: receptor profile (Table S4); type: binding
[3] = target: T2, hr Ad1 (Homo sapiens, UniProt P30542); test: receptor profile (Table S4); type: binding
T2 sequence (P30542 1-326): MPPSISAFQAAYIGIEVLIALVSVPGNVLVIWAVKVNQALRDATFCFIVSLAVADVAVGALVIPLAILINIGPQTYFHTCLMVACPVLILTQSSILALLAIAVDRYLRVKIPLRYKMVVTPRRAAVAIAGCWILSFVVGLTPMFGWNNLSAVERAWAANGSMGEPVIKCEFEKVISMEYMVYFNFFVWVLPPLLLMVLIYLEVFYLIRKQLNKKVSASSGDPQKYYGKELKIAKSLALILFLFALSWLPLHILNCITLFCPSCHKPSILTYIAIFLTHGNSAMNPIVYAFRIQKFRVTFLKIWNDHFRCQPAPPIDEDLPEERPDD

[4] = target: T3, hr PPARg antag (Homo sapiens, UniProt P37231); test: receptor profile (Table S4); type: biochemical
T3 sequence (P37231 1-505): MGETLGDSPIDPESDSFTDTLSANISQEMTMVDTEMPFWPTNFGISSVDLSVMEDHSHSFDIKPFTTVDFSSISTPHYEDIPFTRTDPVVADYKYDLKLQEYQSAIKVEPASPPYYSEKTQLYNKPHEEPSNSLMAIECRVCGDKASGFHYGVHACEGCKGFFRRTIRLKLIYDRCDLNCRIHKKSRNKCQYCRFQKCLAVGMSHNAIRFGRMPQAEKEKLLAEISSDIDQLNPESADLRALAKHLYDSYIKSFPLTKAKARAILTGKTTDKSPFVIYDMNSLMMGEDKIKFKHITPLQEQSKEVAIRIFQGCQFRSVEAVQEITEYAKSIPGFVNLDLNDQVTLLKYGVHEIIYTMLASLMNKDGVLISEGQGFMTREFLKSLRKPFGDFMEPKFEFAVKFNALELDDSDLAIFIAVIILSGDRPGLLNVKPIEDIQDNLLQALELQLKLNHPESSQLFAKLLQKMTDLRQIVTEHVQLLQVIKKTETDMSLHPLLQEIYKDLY

[5] = target: human CYP2D6 (Homo sapiens, UniProt P10635); settings: human recombinant CYP; 1 µM, 30 min
[6] = microsomal extraction ratio, 1 h incubation in microsomes
[7] = target: hr MC3 (Homo sapiens, UniProt P41968); test: receptor profile (Table S4); type: binding
[8] = target: T4, hr TP ag (Homo sapiens, UniProt P21731); test: receptor profile (Table S4); type: biochemical
T4 sequence (P21731 1-343): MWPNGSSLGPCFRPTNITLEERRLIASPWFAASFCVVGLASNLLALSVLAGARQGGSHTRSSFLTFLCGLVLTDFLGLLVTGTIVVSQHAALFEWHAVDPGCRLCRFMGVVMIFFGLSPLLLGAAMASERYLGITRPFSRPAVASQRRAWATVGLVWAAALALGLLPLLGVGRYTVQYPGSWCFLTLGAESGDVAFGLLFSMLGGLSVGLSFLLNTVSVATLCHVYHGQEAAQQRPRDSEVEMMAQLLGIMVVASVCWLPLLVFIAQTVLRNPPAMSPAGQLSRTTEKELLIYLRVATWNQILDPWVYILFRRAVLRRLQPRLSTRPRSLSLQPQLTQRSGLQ

[9] = target: hr ACES (Homo sapiens, UniProt P22303); test: receptor profile (Table S4); type: biochemical
[10] = pharmacokinetics, summary across preclinical species; type: in vivo, rat, dog, cynomolgus monkey
[11] = target: hr ERBB2 (Homo sapiens, UniProt P04626); test: receptor profile (Table S4); type: biochemical
[12] = metabolite profile in monkey hepatocytes; type: in vitro ADME; settings: 10 μM of 1 for 4 h, UV 250 nm, normalized to largest peak

hr ERBB2, sequence (P04626 23-1255): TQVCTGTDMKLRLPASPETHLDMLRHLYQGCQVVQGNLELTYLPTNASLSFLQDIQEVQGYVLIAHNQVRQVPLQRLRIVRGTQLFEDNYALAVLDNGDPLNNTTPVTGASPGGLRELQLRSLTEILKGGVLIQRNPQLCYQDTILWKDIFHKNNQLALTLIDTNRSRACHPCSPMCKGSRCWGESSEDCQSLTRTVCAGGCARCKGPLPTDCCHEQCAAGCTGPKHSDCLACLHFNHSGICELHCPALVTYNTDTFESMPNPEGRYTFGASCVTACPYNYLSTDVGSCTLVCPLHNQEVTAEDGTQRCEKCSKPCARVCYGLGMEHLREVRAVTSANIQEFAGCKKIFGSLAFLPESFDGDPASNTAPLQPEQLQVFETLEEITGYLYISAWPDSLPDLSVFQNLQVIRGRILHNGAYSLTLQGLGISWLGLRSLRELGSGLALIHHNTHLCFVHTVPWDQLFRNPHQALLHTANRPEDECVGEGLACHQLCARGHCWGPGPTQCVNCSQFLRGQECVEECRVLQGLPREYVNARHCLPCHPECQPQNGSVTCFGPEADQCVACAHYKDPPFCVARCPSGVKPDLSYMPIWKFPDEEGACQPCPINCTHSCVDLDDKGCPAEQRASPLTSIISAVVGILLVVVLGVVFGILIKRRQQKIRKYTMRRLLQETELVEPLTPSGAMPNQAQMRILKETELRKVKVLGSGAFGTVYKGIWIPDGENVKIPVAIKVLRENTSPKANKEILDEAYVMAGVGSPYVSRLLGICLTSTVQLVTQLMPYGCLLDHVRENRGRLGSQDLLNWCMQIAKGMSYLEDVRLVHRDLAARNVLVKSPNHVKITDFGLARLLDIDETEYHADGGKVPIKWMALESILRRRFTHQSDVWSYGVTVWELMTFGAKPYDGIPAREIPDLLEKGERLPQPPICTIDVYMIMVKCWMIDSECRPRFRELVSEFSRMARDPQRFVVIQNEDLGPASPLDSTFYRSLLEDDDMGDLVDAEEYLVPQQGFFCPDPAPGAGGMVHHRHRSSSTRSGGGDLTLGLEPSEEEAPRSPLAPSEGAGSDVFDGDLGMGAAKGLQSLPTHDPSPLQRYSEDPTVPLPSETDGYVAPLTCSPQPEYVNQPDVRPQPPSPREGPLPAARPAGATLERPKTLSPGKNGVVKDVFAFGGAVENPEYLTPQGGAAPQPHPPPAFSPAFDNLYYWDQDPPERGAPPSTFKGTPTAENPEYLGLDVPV
hr GHS, sequence (Q92847 whole entry): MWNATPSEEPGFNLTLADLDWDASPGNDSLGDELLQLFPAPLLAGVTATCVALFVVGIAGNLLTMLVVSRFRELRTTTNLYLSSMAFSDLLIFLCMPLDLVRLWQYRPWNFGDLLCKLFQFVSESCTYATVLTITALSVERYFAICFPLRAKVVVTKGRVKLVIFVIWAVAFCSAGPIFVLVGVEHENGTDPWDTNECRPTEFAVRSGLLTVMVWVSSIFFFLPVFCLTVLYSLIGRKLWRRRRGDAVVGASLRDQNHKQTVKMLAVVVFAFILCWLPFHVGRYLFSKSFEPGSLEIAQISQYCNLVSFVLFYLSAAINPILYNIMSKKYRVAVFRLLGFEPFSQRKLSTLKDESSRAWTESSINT
hr MC3, sequence (P41968 whole entry): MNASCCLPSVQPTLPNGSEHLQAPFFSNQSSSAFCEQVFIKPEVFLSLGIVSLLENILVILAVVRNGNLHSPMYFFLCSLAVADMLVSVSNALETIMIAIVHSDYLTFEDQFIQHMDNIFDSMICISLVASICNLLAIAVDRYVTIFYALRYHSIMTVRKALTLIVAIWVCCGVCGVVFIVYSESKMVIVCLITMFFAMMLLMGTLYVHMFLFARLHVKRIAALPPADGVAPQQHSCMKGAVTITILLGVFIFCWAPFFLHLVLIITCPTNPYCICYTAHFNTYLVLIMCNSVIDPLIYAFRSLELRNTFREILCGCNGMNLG
hr ACES, sequence (P22303 32-614): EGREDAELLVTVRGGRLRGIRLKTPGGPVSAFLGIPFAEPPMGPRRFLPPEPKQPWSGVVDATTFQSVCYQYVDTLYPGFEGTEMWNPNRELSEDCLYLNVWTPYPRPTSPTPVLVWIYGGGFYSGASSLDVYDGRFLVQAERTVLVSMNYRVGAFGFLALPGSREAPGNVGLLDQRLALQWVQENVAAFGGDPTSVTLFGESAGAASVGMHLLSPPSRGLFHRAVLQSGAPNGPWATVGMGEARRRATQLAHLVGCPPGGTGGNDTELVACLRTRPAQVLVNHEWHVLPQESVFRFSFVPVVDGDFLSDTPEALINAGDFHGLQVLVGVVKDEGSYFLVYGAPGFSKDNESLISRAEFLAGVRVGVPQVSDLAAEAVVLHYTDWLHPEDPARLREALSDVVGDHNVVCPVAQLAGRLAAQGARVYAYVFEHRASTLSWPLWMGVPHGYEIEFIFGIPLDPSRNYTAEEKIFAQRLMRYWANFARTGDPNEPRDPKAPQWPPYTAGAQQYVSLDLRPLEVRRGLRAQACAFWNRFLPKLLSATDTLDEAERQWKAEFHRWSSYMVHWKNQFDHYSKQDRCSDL
human CYP2D6, sequence (P10635 whole entry): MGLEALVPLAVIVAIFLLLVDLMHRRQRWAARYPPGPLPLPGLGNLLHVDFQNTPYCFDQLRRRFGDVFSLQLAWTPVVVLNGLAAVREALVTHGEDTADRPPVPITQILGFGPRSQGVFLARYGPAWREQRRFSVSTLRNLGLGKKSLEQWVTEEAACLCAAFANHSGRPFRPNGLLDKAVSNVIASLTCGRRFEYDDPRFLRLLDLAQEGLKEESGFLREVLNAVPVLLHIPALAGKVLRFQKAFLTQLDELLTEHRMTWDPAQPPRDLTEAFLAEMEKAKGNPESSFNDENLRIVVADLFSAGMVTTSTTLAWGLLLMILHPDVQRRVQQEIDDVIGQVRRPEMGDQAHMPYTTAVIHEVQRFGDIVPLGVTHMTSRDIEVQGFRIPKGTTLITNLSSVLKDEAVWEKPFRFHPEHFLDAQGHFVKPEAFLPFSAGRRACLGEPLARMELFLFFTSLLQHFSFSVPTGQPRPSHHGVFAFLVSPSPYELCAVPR

Cc1nc(C)c(C(=O)Nc2ccc(F)c(-c3nc4ncc(-c5ncccc5C)cn4n3)c2)o1 [compound 1, N-(4-Fluoro-3-(6-(3-methylpyridin-2-yl)-[1,2,4]triazolo[1,5-a]pyrimidin-2-yl)phenyl)-2,4-dimethyloxazole-5-carboxamide]
EC50/IC50 ([1]; hr Al2A ag): > 30 µM
inhibition at 10 µM ([1]; read-out: % inh/act @ 10 µM): 0%
inhibition at 30 µM ([1]; read-out: % inh/act @ 30 µM): 0%
EC50/IC50 ([2]; hr GHS): > 30 µM
inhibition at 10 µM ([2]; read-out: % inh/act @ 10 µM): 12%
inhibition at 30 µM ([2]; read-out: % inh/act @ 30 µM): 12%
EC50/IC50 ([3]; hr Ad1): > 30 µM
inhibition at 10 µM ([3]; read-out: % inh/act @ 10 µM): 10%
inhibition at 30 µM ([3]; read-out: % inh/act @ 30 µM): 27%
EC50/IC50 ([4]; hr PPARg antag): > 30 µM
inhibition at 10 µM ([4]; read-out: % inh/act @ 10 µM): -5%
inhibition at 30 µM ([4]; read-out: % inh/act @ 30 µM): 16%
substrate of human CYP2D6 [5]: not a substrate
ER human [6]: 0.27
EC50/IC50 ([7]; hr MC3): > 30 µM
inhibition at 10 µM ([7]; read-out: % inh/act @ 10 µM): 10%
inhibition at 30 µM ([7]; read-out: % inh/act @ 30 µM): 24%
EC50/IC50 ([8]; hr TP ag): > 30 µM
inhibition at 10 µM ([8]; read-out: % inh/act @ 10 µM): -5%
inhibition at 30 µM ([8]; read-out: % inh/act @ 30 µM): -2%
EC50/IC50 ([9]; hr ACES): > 30 µM
inhibition at 10 µM ([9]; read-out: % inh/act @ 10 µM): 16%
bioavailability ([10]; Balb/c (mouse), Wistar (rat), beagle (dog), rat, dog, cynomolgus monkey, in vivo, po, across the tested species, conventional suspension formulations): 27 to 67%
half-life ([10]; male, Balb/c (mouse), Wistar (rat), beagle (dog), rat, dog, cynomolgus monkey, in vivo, across species following IV administration, read-out: plasma terminal half-life): 180 to 600 min
CL as % of hepatic blood flow ([10]; mouse, rat, and monkey, IV, fumarate salt): 2–17 % of hepatic blood flow
EC50/IC50 ([11]; hr ERBB2): > 30 µM
inhibition at 10 µM ([11]; read-out: % inh/act @ 10 µM): 0%
inhibition at 30 µM ([11]; read-out: % inh/act @ 30 µM): 0%
abundance monkey [12]: +++ (+++ > 75%)

— publication PMC7549094 (Journal of Medicinal Chemistry, 2020)
